{"source": "ChEMBL document CHEMBL3046848", "about": "“Synthesis and biological evaluation of novel series of thieno[2,3-d]pyrimidine derivatives as anticancer and antimicrobial agents” (2013)", "assay_type_in_all_cases": "functional", "key": {"KM12 [1]": {"test_system": "KM12", "assay": "Anticancer activity against Homo sapiens (human) KM12 cells after 48 hr by SRB assay", "details": "KM12, 48 h"}, "OVCAR-3": {"test_system": "OVCAR-3", "assay": "Anticancer activity against Homo sapiens (human) OVCAR3 cells after 48 hr by SRB assay", "details": "OVCAR-3, 48 h"}, "CAKI-1": {"test_system": "CAKI-1", "assay": "Anticancer activity against Homo sapiens (human) CAKI-1 cells after 48 hr by SRB assay", "details": "CAKI-1, 48 h"}, "SF-268": {"test_system": "SF-268", "assay": "Anticancer activity against Homo sapiens (human) SF268 cells after 48 hr by SRB assay", "details": "SF-268, 48 h"}, "IGROV-1": {"test_system": "IGROV-1", "assay": "Anticancer activity against Homo sapiens (human) IGROV1 cells after 48 hr by SRB assay", "details": "IGROV-1, 48 h"}, "SF-295": {"test_system": "SF-295", "assay": "Anticancer activity against Homo sapiens (human) SF295 cells after 48 hr by SRB assay", "details": "SF-295, 48 h"}, "SK-MEL-5": {"test_system": "SK-MEL-5", "assay": "Growth inhibition of Homo sapiens (human) SK-MEL-5 cells at 10 uM after 48 hr by SRB assay", "details": "SK-MEL-5, 48 h, read-out: GI"}, "SR [2]": {"test_system": "SR", "assay": "Anticancer activity against Homo sapiens (human) SR cells after 48 hr by SRB assay"}, "SR [3]": {"test_system": "SR", "assay": "Growth inhibition of Homo sapiens (human) SR cells at 10 uM after 48 hr by SRB assay", "details": "read-out: GI"}, "TK-10": {"test_system": "TK-10", "assay": "Anticancer activity against Homo sapiens (human) TK10 cells after 48 hr by SRB assay", "details": "TK-10, 48 h"}, "HOP-92": {"test_system": "HOP-92", "assay": "Growth inhibition of Homo sapiens (human) HOP92 cells at 10 uM after 48 hr by SRB assay", "details": "HOP-92, 48 h, read-out: GI"}, "MCF7": {"test_system": "MCF7", "assay": "Anticancer activity against Homo sapiens (human) MCF7 cells after 48 hr by SRB assay", "details": "MCF7, 48 h"}, "SF-539": {"test_system": "SF-539", "assay": "Growth inhibition of Homo sapiens (human) SF539 cells at 10 uM after 48 hr by SRB assay", "details": "SF-539, 48 h, read-out: GI"}, "SK-MEL-2": {"test_system": "SK-MEL-2", "assay": "Anticancer activity against Homo sapiens (human) SK-MEL-2 cells after 48 hr by SRB assay", "details": "SK-MEL-2, 48 h"}, "KM12 [4]": {"test_system": "KM12", "assay": "Growth inhibition of Homo sapiens (human) KM12 cells at 10 uM after 48 hr by SRB assay", "details": "KM12, 48 h, read-out: GI"}, "SK-MEL-28": {"test_system": "SK-MEL-28", "assay": "Growth inhibition of Homo sapiens (human) SK-MEL-28 cells at 10 uM after 48 hr by SRB assay", "details": "SK-MEL-28, 48 h, read-out: GI"}, "Staphylococcus aureus": {"test_system": "Staphylococcus aureus", "assay": "Antimicrobial activity against Staphylococcus aureus ATCC6538P assessed as diameter of growth inhibition zone at 1 mg/ml after 24 hr by agar cup diffusion method", "details": "read-out: IZ"}, "EKVX": {"test_system": "EKVX", "assay": "Growth inhibition of Homo sapiens (human) EKVX cells at 10 uM after 48 hr by SRB assay", "details": "read-out: GI"}, "[5]": {"details": "read-out: LC50 (the source's name)"}}, "data": [{"smiles": "Cc1c(C(N)=O)sc2nc(C)n(/N=c3\\scc(-c4ccccc4)n3Cc3ccccc3)c(=O)c12", "values": [{"measurement": "GI50", "setting": "KM12 [1]", "value": 3.37, "unit": "µM"}, {"measurement": "TGI", "setting": "KM12 [1]", "value": "> 100", "unit": "µM"}, {"measurement": "CC50", "setting": "KM12 [1]; [5]", "value": "> 100", "unit": "µM"}, {"measurement": "GI50", "setting": "OVCAR-3", "value": 2.28, "unit": "µM"}, {"measurement": "TGI", "setting": "OVCAR-3", "value": 8.58, "unit": "µM"}, {"measurement": "CC50", "setting": "OVCAR-3; [5]", "value": "> 100", "unit": "µM"}, {"measurement": "GI50", "setting": "CAKI-1", "value": 3.35, "unit": "µM"}, {"measurement": "TGI", "setting": "CAKI-1", "value": "> 100", "unit": "µM"}, {"measurement": "CC50", "setting": "CAKI-1; [5]", "value": "> 100", "unit": "µM"}, {"measurement": "GI50", "setting": "SF-268", "value": 4, "unit": "µM"}, {"measurement": "TGI", "setting": "SF-268", "value": "> 100", "unit": "µM"}, {"measurement": "CC50", "setting": "SF-268; [5]", "value": "> 100", "unit": "µM"}, {"measurement": "GI50", "setting": "IGROV-1", "value": 1.43, "unit": "µM"}, {"measurement": "TGI", "setting": "IGROV-1", "value": 6.31, "unit": "µM"}, {"measurement": "CC50", "setting": "IGROV-1; [5]", "value": "> 100", "unit": "µM"}, {"measurement": "GI50", "setting": "SF-295", "value": 2.93, "unit": "µM"}, {"measurement": "TGI", "setting": "SF-295", "value": "> 100", "unit": "µM"}, {"measurement": "CC50", "setting": "SF-295; [5]", "value": "> 100", "unit": "µM"}, {"measurement": "inhibition of growth at 10 µM", "setting": "SK-MEL-5", "value": 92.6, "unit": "%"}, {"measurement": "GI50", "setting": "SR [2]", "value": 5.74, "unit": "µM"}, {"measurement": "TGI", "setting": "SR [2]", "value": "> 100", "unit": "µM"}, {"measurement": "CC50", "setting": "SR [2]; [5]", "value": "> 100", "unit": "µM"}, {"measurement": "inhibition of growth at 10 µM", "setting": "SR [3]", "value": 87.2, "unit": "%"}, {"measurement": "GI50", "setting": "TK-10", "value": 3.78, "unit": "µM"}, {"measurement": "TGI", "setting": "TK-10", "value": "> 100", "unit": "µM"}, {"measurement": "CC50", "setting": "TK-10; [5]", "value": "> 100", "unit": "µM"}, {"measurement": "inhibition of growth at 10 µM", "setting": "HOP-92", "value": 119, "unit": "%"}, {"measurement": "GI50", "setting": "MCF7", "value": 2.92, "unit": "µM"}, {"measurement": "TGI", "setting": "MCF7", "value": "> 100", "unit": "µM"}, {"measurement": "CC50", "setting": "MCF7; [5]", "value": "> 100", "unit": "µM"}, {"measurement": "inhibition of growth at 10 µM", "setting": "SF-539", "value": 77.8, "unit": "%"}, {"measurement": "GI50", "setting": "SK-MEL-2", "value": 3.89, "unit": "µM"}, {"measurement": "TGI", "setting": "SK-MEL-2", "value": 86.6, "unit": "µM"}, {"measurement": "CC50", "setting": "SK-MEL-2; [5]", "value": "> 100", "unit": "µM"}, {"measurement": "inhibition of growth at 10 µM", "setting": "KM12 [4]", "value": 86.4, "unit": "%"}, {"measurement": "inhibition of growth at 10 µM", "setting": "SK-MEL-28", "value": 51.8, "unit": "%"}, {"measurement": "zone of inhibition at 1000 µg/mL", "setting": "Staphylococcus aureus", "value": 10, "unit": "mm"}, {"measurement": "inhibition of growth at 10 µM", "setting": "EKVX", "value": 107, "unit": "%"}]}]}
